2 compounds from patent US9611249B2, “1H-indazole-3-carboxamide compounds as glycogen synthase kinase 3 beta inhibitors” (AZIENDE CHIMICHE RIUNITE ANGELINI FRANCESCO A.C.R.A.F. …, priority 2012, dated 2017) can be followed below.

Molecules are shown by their SMILES.

Experiment [1] concerns the target human GSK-3β (Homo sapiens (Human), UniProt P49841). Description: GSK-3β LanthaScreen TR-FRET Eu Kinase binding and displacement assay. To be noted: compounds 16 to 41, LanthaScreen TR-FRET binding and displacement assay, five concentrations 100 μM to 10 nM. The method, then:
In a second assay, the same compounds were assayed at five concentrations ranging from 100 μM to 10 nM with ten-fold dilutions in duplicate. Compounds 1 to 15 were tested using the same first assay, compounds 16 to 41 were tested in another assay based on the binding and displacement of AlexaFluor® 647 labeled, ATP-competitive Kinase inhibitor scaffold using LanthaScreen™ TR-FRET technology Eu Kinase assay packet according to manufacturer's instruction (Life Technologies, Italy).
The IC50 values (concentration causing a half maximal inhibition of control specific activity), reported in table 4, were determined by non-linear regression analysis of the inhibition curves generated with mean replicate values using Hill equation curve fitting.

The target in experiment [2] is IRK (h) (InsR) (Homo sapiens (Human), UniProt P06213). Description: Kinase selectivity panel: IRK (h) (InsR). The experiment is classed as biochemical. To be noted: 10 μM in duplicate, read-out: % inhibition of control values. The method, then: (§1) (a) Compounds 1 and 2 were tested against a panel of 60 kinases in order to assess their selectivity. The assays were chosen taking into consideration the diversity of assay families.
(§2) Tested kinases were representative of following kinase sub-families: • protein-serine/threonine kinases; • protein-tyrosine kinases; • other kinases; and • atypical kinases.
(§3) Human recombinant kinases were incubated in the presence of specific peptide substrates plus ATP for different times (10, 15, 30, 60 or 90 minutes) at 22° C. Phosphorylated substrate was detected by LANCE or HTRF technology (CISBIO, MA, USA). The compounds were tested at 10 μM in duplicate.
(§4) The results are expressed as a percentage of inhibition of control specific activity obtained in the presence of the test compounds and are reported in the following Table 5.
(§5) (b) Compounds 3, 8, 29 and 31 were tested against the same panel of 60 kinases under the same conditions described above for compounds 1 and 2.
(§6) The results are expressed as a percent of inhibition of control specific activity obtained in the presence of the test compounds and are reported in the following Table 6.

In experiment [3] the target is TRKA (h) (Homo sapiens (Human), UniProt P04629). Description: Kinase selectivity panel: TRKA (h). The format is biochemical. To be noted: 10 μM in duplicate, read-out: % inhibition of control values. Here is the method:
as §1, §2, §3, §4, §5, §6

Experiment [4] addresses Src kinase (h) (Homo sapiens (Human), UniProt P12931). Description: Kinase selectivity panel: Src kinase (h). Particulars: 10 μM in duplicate, read-out: % inhibition of control values. The experiment is classed as biochemical. The method, then: as §1, §2, §3, §4, §5, §6
In experiment [5] the target is GSK3beta (h) (Homo sapiens (Human), UniProt P49841). Description: Kinase selectivity panel: GSK3beta (h). The format is biochemical. To be noted: for inhibition at 10 µM: GSK3beta (h), 10 μM in duplicate, read-out: % inhibition of control values; for selectivity for GSK-3β compared to the other kinases of the panel: panel of 60 kinases, 10 μM, conclusion in words. Here is the method:
as §1, §2, §3, §4, §6

Experiment [6] deals with DYRK1a (h) (Homo sapiens (Human), UniProt Q13627). The experiment in a line: Kinase selectivity panel: DYRK1a (h). The experiment is classed as biochemical. To be noted: 10 μM in duplicate, read-out: % inhibition of control values. The method, then:
as §1, §2, §3, §4, §5, §6

Experiment [7] deals with PCTAIRE1 kinase (h) (Homo sapiens (Human), UniProt Q00536). The experiment in a line: Kinase selectivity panel: PCTAIRE1 kinase (h). To be noted: 10 μM in duplicate, read-out: % inhibition of control values. The experiment is classed as biochemical. The method, then: as §1, §2, §3, §4, §5, §6
For experiment [8], the target named is CDC2/CDK1 (h) (cycB) (Homo sapiens (Human), UniProt P06493). Description: Kinase selectivity panel: CDC2/CDK1 (h) (cycB). The experiment is classed as biochemical. Particulars: 10 μM in duplicate, read-out: % inhibition of control values. The method, then: as §1, §2, §3, §4, §5, §6
CDC2/CDK1 (h) (cycB), sequence (P06493 whole entry): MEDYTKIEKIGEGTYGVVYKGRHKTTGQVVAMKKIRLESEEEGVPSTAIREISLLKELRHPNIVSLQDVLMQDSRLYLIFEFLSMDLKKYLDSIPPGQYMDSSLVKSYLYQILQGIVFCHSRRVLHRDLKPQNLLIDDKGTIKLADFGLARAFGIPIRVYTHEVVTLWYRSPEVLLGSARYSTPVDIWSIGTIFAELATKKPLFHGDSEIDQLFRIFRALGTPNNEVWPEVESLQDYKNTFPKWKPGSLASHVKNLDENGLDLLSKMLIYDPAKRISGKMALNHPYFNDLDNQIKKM
CDC2/CDK1 (h) (cycB), sequence (P14635 whole entry partner): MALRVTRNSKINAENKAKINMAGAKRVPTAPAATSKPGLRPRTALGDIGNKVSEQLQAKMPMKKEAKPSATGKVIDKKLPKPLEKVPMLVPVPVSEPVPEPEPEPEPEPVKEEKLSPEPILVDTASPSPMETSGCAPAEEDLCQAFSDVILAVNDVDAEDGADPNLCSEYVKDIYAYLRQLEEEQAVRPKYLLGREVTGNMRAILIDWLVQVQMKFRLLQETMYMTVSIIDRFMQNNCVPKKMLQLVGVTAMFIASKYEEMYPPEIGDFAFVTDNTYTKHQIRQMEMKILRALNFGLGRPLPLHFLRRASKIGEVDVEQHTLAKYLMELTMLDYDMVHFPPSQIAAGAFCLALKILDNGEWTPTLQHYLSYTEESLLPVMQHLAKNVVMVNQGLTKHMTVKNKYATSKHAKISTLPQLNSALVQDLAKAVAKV
The target in experiment [9] is CDK2 (h) (cycA) (Homo sapiens (Human), UniProt P24941). The experiment in a line: Kinase selectivity panel: CDK2 (h) (cycA). The experiment is classed as biochemical. Particulars: 10 μM in duplicate, read-out: % inhibition of control values. Here is the method:
as §1, §2, §3, §4, §5, §6

The target in experiment [10] is CDK5/p35 (h) (Homo sapiens (Human), UniProt Q00535). The experiment in a line: Kinase selectivity panel: CDK5/p35 (h). The format is biochemical. Particulars: 10 μM in duplicate, read-out: % inhibition of control values. The method, then:
as §1, §2, §3, §4, §5, §6

The target of experiment [11] is ERK1 (h) (Homo sapiens (Human), UniProt P27361). The experiment in a line: Kinase selectivity panel: ERK1 (h). The experiment is classed as biochemical. To be noted: 10 μM in duplicate, read-out: % inhibition of control values. Here is the method:
as §1, §2, §3, §4, §5, §6

In experiment [12] the target is ERK2 (h) (P42mapk) (Homo sapiens (Human), UniProt P28482). Description: Kinase selectivity panel: ERK2 (h) (P42mapk). Particulars: 10 μM in duplicate, read-out: % inhibition of control values. The format is biochemical. The method, then:
as §1, §2, §3, §4, §5, §6

The target in experiment [13] is smMLCK (h) (MYLK) (Homo sapiens (Human), UniProt Q15746). The experiment in a line: Kinase selectivity panel: smMLCK (h) (MYLK). To be noted: 10 μM in duplicate, read-out: % inhibition of control values. The format is biochemical. The method, then:
as §1, §2, §3, §4, §5, §6

Experiment [14] deals with HGK (h) (MAP4K4) (Homo sapiens (Human), UniProt O95819). Description: Kinase selectivity panel: HGK (h) (MAP4K4). The experiment is classed as biochemical. Particulars: 10 μM in duplicate, read-out: % inhibition of control values. Here is the method:
as §1, §2, §3, §4, §5, §6

For experiment [15], the target named is MEK1/MAP2K1 (h) (Homo sapiens (Human), UniProt Q02750). The experiment in a line: Kinase selectivity panel: MEK1/MAP2K1 (h). The experiment is classed as biochemical. To be noted: 10 μM in duplicate, read-out: % inhibition of control values. The method, then:
as §1, §2, §3, §4, §5, §6

For experiment [16], the target named is TAOK2 (TAO1) (h) (Homo sapiens (Human), UniProt Q9UL54). The experiment in a line: Kinase selectivity panel: TAOK2 (TAO1) (h). The experiment is classed as biochemical. Particulars: 10 μM in duplicate, read-out: % inhibition of control values. The method, then:
as §1, §2, §3, §4, §5, §6

For experiment [17], the target named is NEK1 (h) (Homo sapiens (Human), UniProt Q96PY6). Description: Kinase selectivity panel: NEK1 (h). The experiment is classed as biochemical. To be noted: 10 μM in duplicate, read-out: % inhibition of control values. The method, then: as §1, §2, §3, §4, §5, §6
NEK1 (h), sequence (Q96PY6 whole entry): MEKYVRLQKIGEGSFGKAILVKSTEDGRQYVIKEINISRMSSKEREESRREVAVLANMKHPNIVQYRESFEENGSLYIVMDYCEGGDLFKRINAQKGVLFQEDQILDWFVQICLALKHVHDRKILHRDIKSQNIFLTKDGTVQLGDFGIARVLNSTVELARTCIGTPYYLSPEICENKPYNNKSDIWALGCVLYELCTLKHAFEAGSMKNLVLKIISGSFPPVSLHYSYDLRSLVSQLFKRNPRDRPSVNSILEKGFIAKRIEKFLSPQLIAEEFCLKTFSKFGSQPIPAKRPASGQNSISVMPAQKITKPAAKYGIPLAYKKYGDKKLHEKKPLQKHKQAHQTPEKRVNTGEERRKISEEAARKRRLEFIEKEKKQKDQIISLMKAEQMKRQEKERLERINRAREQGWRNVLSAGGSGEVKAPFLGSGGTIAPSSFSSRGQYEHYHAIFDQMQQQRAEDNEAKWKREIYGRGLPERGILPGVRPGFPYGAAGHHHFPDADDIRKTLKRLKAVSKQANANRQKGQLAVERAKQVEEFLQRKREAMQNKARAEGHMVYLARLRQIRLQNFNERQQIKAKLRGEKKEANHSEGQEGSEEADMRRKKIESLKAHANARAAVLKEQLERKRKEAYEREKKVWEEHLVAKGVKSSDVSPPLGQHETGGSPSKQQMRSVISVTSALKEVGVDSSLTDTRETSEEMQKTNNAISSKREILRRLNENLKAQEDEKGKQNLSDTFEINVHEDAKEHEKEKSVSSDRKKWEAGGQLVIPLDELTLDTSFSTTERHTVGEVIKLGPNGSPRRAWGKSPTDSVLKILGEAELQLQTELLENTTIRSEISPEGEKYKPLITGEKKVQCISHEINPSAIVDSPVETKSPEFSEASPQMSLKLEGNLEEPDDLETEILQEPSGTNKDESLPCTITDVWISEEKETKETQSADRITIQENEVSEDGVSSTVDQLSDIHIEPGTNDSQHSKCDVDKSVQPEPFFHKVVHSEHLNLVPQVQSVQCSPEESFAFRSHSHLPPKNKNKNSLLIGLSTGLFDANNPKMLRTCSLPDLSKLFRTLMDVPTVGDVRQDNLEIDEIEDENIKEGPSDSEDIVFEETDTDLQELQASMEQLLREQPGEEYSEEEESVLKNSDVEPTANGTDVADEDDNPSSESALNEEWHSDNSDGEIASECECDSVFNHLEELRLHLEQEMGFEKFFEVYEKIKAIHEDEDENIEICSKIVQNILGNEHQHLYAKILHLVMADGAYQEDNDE

GSK3beta (h), sequence (P49841 whole entry): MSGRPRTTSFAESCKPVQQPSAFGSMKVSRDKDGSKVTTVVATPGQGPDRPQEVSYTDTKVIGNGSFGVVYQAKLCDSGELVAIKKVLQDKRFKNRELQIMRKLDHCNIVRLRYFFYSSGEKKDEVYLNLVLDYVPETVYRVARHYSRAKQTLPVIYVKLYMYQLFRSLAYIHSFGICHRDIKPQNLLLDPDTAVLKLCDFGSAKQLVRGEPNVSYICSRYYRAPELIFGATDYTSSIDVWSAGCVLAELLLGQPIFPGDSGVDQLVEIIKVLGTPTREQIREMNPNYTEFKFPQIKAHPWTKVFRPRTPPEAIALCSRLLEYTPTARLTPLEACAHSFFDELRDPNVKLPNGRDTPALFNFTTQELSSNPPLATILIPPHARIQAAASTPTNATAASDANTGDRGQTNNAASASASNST
HGK (h) (MAP4K4), sequence (O95819 whole entry): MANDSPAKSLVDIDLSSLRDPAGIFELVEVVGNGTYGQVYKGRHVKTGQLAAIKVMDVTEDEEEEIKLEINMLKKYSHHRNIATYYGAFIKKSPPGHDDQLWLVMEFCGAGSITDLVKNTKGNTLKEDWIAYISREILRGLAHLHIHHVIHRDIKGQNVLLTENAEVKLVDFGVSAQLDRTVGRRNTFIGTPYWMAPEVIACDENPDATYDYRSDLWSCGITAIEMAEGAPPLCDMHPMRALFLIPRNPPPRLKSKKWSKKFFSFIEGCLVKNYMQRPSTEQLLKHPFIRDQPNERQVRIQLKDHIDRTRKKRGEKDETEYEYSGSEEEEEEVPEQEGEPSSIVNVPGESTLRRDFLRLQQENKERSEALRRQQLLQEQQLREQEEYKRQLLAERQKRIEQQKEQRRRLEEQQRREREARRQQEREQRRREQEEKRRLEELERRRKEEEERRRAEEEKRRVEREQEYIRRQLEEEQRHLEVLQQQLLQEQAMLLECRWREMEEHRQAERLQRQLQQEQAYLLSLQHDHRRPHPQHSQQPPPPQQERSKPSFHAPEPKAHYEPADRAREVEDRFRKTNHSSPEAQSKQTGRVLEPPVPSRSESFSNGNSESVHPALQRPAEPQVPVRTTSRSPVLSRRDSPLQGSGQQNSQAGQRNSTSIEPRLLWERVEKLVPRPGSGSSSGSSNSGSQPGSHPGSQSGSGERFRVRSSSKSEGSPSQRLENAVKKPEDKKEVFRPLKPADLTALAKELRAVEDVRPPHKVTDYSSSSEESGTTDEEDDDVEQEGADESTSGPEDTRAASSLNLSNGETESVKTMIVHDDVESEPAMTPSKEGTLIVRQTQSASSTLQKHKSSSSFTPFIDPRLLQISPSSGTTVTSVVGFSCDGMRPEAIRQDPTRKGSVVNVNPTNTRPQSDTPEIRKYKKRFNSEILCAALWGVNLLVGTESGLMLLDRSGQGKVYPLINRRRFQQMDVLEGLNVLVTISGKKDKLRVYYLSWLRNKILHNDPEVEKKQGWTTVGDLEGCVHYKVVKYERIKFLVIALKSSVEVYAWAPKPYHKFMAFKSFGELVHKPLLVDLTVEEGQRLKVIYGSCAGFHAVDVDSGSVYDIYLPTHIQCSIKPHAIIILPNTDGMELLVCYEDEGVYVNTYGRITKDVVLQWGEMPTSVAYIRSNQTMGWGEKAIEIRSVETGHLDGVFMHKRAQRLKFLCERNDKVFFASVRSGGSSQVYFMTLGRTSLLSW
ERK1 (h), sequence (P27361 whole entry): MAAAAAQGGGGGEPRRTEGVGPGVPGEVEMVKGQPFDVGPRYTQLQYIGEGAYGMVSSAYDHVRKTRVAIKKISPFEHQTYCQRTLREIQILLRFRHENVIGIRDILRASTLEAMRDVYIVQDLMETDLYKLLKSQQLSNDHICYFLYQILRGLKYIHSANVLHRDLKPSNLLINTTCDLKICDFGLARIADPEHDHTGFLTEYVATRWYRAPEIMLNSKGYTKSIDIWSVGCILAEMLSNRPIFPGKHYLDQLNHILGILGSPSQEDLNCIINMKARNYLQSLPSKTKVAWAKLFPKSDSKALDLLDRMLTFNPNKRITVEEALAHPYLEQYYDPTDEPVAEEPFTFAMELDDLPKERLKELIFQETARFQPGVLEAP
TRKA (h), sequence (P04629 33-796): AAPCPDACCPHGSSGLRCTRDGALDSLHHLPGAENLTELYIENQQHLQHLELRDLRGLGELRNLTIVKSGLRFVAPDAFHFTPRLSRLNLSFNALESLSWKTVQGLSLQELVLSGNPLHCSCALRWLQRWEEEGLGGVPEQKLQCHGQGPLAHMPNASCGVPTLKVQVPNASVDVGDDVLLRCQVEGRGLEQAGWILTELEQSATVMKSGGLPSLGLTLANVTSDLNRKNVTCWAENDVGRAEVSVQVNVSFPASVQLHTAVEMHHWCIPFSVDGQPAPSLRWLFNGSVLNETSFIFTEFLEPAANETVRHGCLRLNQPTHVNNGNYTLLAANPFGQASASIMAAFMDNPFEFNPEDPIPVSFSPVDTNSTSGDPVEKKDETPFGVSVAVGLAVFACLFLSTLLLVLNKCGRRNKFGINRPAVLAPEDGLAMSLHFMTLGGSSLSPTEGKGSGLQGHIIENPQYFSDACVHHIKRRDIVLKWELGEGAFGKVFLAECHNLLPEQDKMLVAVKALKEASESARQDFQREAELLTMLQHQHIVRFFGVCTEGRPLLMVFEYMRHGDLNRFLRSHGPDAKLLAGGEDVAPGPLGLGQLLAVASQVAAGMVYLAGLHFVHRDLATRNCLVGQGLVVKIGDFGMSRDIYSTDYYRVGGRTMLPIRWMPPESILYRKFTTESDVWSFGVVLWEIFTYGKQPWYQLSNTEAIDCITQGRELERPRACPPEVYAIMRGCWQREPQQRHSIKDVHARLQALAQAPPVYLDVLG
human GSK-3β, sequence (P49841 whole entry): as the sequence (P49841 whole entry) above

`O=C(O)CN1CCC(CNC(=O)c2n[nH]c3ccc(-c4cccc(F)c4F)cc23)CC1` [Compound 29, {4-[({[5-(2,3-difluorophenyl)-1H-indazol-3-yl]carbonyl}amino)methyl]piperidin-1-yl}acetic acid] showed an IC50 in [1] of 30 nM. In addition, the inhibition at 10 µM in experiment [2] was found to be 0%; in experiment [3] it was 3%; in experiment [4], 0%; in experiment [5], 100%; in experiment [6], 100%; in experiment [7], 49%. Besides, the inhibition at 10 µM in [8] was determined as 80%; in [9], 77%; in experiment [10] it was 77%; in experiment [11], 61%; in experiment [12] it was 67%; in [13], 17%. The inhibition at 10 µM came out at 71% in experiment [14], 75% in [15], 61% in [16] and 9% in experiment [17]. For the same compound, the “selectivity for GSK-3β compared to the other kinases of the panel” value in experiment [5] is recorded as “good affinity to GSK-3β when compared to most of other kinases of the same family”.

As for `CCc1ccc2[nH]nc(C(=O)NCC3CCN(CC(=O)O)CC3)c2c1` [Compound 31, [4-({[(5-ethyl-1H-indazol-3-yl)carbonyl]amino}methyl)piperidin-1-yl]acetic acid], the IC50 in experiment [1] is 960 nM. The inhibition at 10 µM in experiment [2] turned out to be 0%; in experiment [3], 0%; in experiment [4] it was 9%; in experiment [5], 89%; in [6], 77%; in [7] it was 27%. In addition, the inhibition at 10 µM in experiment [8] was determined as 10%; in [9] it was 35%; in experiment [10], 16%; in experiment [11], 1%; in [12] it was 9%; in [13] it was 1%. Also, the inhibition at 10 µM in experiment [14] came to 10%; in experiment [15], 9%; in [16], 9%; in experiment [17], 0%. Further, in experiment [5], the “selectivity for GSK-3β compared to the other kinases of the panel” value is given as “good selectivity profile”.
